In paper PMC8736263 (European journal of pharmacology, 2021):

Tests used:
[1] = biological target: T1, sigma-2 receptor/transmembrane protein 97 (TMEM97) (Rattus norvegicus, UniProt Q5U3Y7); assay: radioligand competition with [3H]DTG plus […]; assay type: binding
T1 sequence (Q5U3Y7 1-176): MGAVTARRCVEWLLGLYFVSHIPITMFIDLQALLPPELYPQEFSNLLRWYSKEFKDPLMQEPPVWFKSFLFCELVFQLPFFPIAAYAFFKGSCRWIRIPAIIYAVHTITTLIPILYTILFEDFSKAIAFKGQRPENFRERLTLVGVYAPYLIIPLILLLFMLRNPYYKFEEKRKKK

sigma-1 receptor = sigma-1 receptor (Rattus norvegicus, UniProt Q9R0C9); assay: radioligand competition with [3H]-; assay type: binding
sigma-1 receptor, sequence (Q9R0C9 whole entry): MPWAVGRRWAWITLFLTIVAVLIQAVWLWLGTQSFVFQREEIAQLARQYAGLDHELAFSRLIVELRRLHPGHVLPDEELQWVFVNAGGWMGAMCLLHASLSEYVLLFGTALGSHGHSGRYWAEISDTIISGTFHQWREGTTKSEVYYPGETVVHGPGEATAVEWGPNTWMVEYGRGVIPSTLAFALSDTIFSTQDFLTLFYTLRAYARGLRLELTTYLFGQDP

O=c1oc2cc(NC(=S)Nc3ccc4c(c3)oc(=O)n4CCCCN3CCN(c4ccc(F)cc4)CC3)ccc2n1CCCCN1CCN(c2ccc(F)cc2)CC1 [MAM03055A, 1,3-bis(3-(4-(4-(4-fluorophenyl)piperazin-1-yl)butyl)-2-oxo-2,3-dihydrobenzo[d]oxazol-6-yl)thiourea]
Ki [1]: 0.0559 µM | Ki (sigma-1 receptor): 3.37 µM
